Results from patent publication US6331287A, “2'-deoxy-2'-fluoro-d-arabinofuranosyl pyrimidine nucleoside” (University Advanced Bio-imaging Associates, priority 1998, dated 2001).
“Also recorded” adds a separate entry of the source. Where two headings read alike, the source gives them in different places. Each block holds one compound with its values, some of them ahead of it.

Columns and labels:
[1] = cited from earlier work
[2] = patients, Phase I; cited from earlier work
thymidine incorporation = conditions: read-out: ED50 for inhibition of thymidine incorporation; cited from earlier work
[3] = dogs; cited from earlier work
[4] = dogs, cited from earlier work
mammalian kinases = conditions: relative to thymidine, cell culture systems; cited from earlier work
viral kinases = conditions: relative to thymidine, cell culture systems; cited from earlier work
[5] = Plasma clearance of [^11 C]FMAU or [^11 C]TdR after intravenous bolus in dogs (FIG. 1); type: in vivo; conditions: dog; for plasma clearance: intravenous
[6] = HPLC analysis of plasma samples for radiolabeled metabolites in dogs; type: in vivo; conditions: dog, FMAU over 90 minutes
[7] = Storage stability of compound 2; type: physicochemical; conditions: after flash chromatography, anhydrous conditions
Protocol: After purification by flash chromatography compound 2 could be stored at room temperature for at least 10 months under anhydrous conditions. Its melting point was broad due to the fact that a mixture of four diastereomers were probably present. Treatment of compound 2 with n-butyllithium (2.5 equivalent) produced the dianion 3 in situ which was treated with either unlabeled or [^11 C]-methyl iodide to produce the methylated product 4. The major by-product in the methylation reaction was the dehalogenated compound 5. The ratio of the desired product to the by-product was 43:57, as determined by ^1 HNMR integration of the C6 hydrogen. Deprotection of the tetrahydropyranyl ether produced the desired compound FMAU in 82% chemical yield.

host DNA = conditions: cited from earlier work
[8] = rats, cited from earlier work
Vero cells = conditions: in culture; cited from earlier work
[9] = system: organs with rapidly dividing cells such as the small intestine and spleen; conditions: rats; cited from earlier work
PC12 cells = conditions: in culture; cited from earlier work
[10] = mice, cited from earlier work
[11] = system: brain tumor (gliosarcoma); conditions: dogs not infected by herpes simplex virus, PET
[12] = intravenous, through 24 hours, HPLC
[13] = intravenous bolus 20-25 mCi, 50-100 Ci/mmol, two components of approximately equal amplitudes

Structure (SMILES): O=c1[nH]c(=O)n([C@@H]2O[C@H](CO)[C@@H](O)[C@@H]2F)cc1I [FIAU, 2'-Fluoro-5-iodo-1-β-D-arabinofuranosyluracil]
dehalogenation / deiodination in vivo [1]: deiodination followed by methylation at the 5 position of the base also can occur prior to DNA incorporation

Structure (SMILES): Nc1nc(=O)n([C@@H]2O[C@H](CO)[C@@H](O)[C@@H]2F)cc1[125I] [[^125 I] labeled FIAC, [^125 I]2'-fluoro-5-iodo-1-β-D-arabinofuranosyl-cytosine]
dehalogenation / deiodination in vivo [1]: extensive deiodination in vivo

Structure (SMILES): Cc1cn([C@@H]2O[C@H](CO)[C@@H](O)[C@@H]2F)c(=O)[nH]c1=O [FMAU, 2'-fluoro-5-methyl-1-β-D-arabinofuranosyluracil]
dose above which significant dose-limiting neurotoxicity developed [2]: above 8 mg/m^2×5 days
IC50 (thymidine incorporation): 8 to 28 µM
LD10 [3]: 25 mg/m^2×10 days
glucuronide adduct of FMAU among trace metabolites ([4]; urine, present in all three species): most abundant in dogs
phosphorylation by mammalian kinases (mammalian kinases): phosphorylated by mammalian kinases to levels approaching that of thymidine; also recorded: good substrate relative to thymidine
phosphorylation by viral kinases (viral kinases): good substrate relative to thymidine

Structure (SMILES): [11CH3]c1cn([C@H]2CC(O)[C@@H](CO)O2)c(=O)[nH]c1=O (stereo partly shown) [[^11 C]TdR]
plasma clearance [5]: rapid plasma clearance
radiolabeled metabolites in plasma [6]: progressive rise in radiolabeled metabolites

storage stability at room temperature [7]: at least 10 months
Structure (SMILES): O=c1[nH]c(=O)n([C@@H]2O[C@H](COC3CCCCO3)[C@@H](OC3CCCCO3)[C@@H]2F)cc1I (stereo partly drawn) [compound 2, 3', 5'-O-bis-(tetrahydropyranyl)-2'-fluoro-5-iodo-1-β-D-arabino-furanosyluracil]

Structure (SMILES): Cc1cn([C@@H]2O[C@H](CO)[C@@H](O)[C@@H]2F)[14c](=O)[nH]c1=O [[2-^14 C]-FMAU]
incorporation into host DNA (host DNA): substantial incorporation
composition of urine radioactivity [4, 12]: primarily of unchanged parent compound
injected radioactivity cleared into the urine ([4]; intravenous): Nearly all
four minor metabolites, share of total urine radioactivity ([4]; urine at 24 hr): less than 3%
composition of urine radioactivity [8, 12]: primarily of unchanged parent compound
injected radioactivity cleared into the urine ([8]; intravenous): Nearly all
four minor metabolites, share of total urine radioactivity ([8]; urine at 24 hr): < 5%
accumulation in proliferating Vero cells (Vero cells): preferentially observed
accumulation in small intestine and spleen [9]: preferentially observed
accumulation in proliferating PC12 cells (PC12 cells): preferentially observed
composition of urine radioactivity [10, 12]: primarily of unchanged parent compound
injected radioactivity cleared into the urine ([10]; intravenous): Nearly all
four minor metabolites, share of total urine radioactivity ([10]; urine at 24 hr): < 15%

plasma clearance [5]: rapid plasma clearance
half time of first exponential component of plasma activity concentration curve [5, 13]: 2.4 min
half time of second exponential component of plasma activity concentration curve [5, 13]: 63 min
plasma clearance ([5]; listed as [^11 C] FMAU): rapid clearance
radiolabeled metabolites in plasma [6]: no radiolabeled metabolites
Structure (SMILES): [11CH3]c1cn([C@@H]2O[C@H](CO)[C@@H](O)[C@@H]2F)c(=O)[nH]c1=O [[^11 C]FMAU, 2'-fluoro-5-[^11 C-methyl]-1-β-D-arabinofuranosyluracil]
localization in brain tumor / tumor visualization [11]: localized selectively within the proliferating cells of brain tumors, but not in normal brain cells; also recorded: the tumor was well visualized; also recorded: accumulated within brain tumor cells that were not infected with herpes simplex virus

Structure (SMILES): O=c1[nH]c(=O)n([C@H]2C[C@H](O)[C@@H](CO)O2)cc1[131I] [radioiodinated IUdR]
dehalogenation / deiodination in vivo [1]: significant dehalogenation
